SMILES strings stand for the structures. In brackets after ≈: the same amount, converted by molar mass. Like-named read-outs stand apart in the source and are kept apart here.

One series relates to THM-R P. aeruginosa. As to the kind of experiment: disc diffusion test, relative antibacterial potency to thienamycin. Type of series: cell-based. The settings on record: ratio to thienamycin (=1.0), larger = higher activity. On the procedure:
(§1) The antibacterial activities of the compounds of the present invention described in the Examples, as representative examples of the compound of the present invention, were measured by a disc diffusion test by the method of Bauer et al. (Amer. J. Clin. Pathol., vol. 45, p. 493 (1966)). Thienamycin or imipenem was used as the internal standard.
(§2) MIC of each test compound was calculated from the diameter of the inhibition ring formed by the disc containing the test compound by using the calculation formula reported by Humphrey and Lightbown (J. Gen. Microbiol., vol. 7, p. 129 (1952)). For each microorganism, a geometrical average of MIC was obtained, and the activity ratio to thienamycin was calculated.
(§3) The antibacterial activities are represented by the ratio to thienamycin (=1.0), whereby the larger the numerical value, the higher the activities.

The next series relates to Meth-R S. aureus. Described as above. Type of series: cell-based. The settings on record: ratio to thienamycin (=1.0), larger = higher activity. On the procedure:
as §1, §2, §3

A further series deals with P. aeruginosa MB5002. As to the kind of experiment: in vitro antibacterial activity, agar plate dilution method (MIC). Type of series: cell-based. The settings on record: for MIC: Pseudomonas aeruginosa, MB5002, 16 h, read-out: Minimum Inhibitory Concentration (MIC). On the procedure:
(§4) One platinum loopful of each test microorganism incubated overnight in Mueller Hinton broth, was inoculated to Mueller Hinton agar (inoculum size: 10^6 CFU/ml). Such culture media contained antibacterial agents in various concentrations. After incubation at 37° C. for 16 hours, the minimum inhibitory concentrations (MIC: μg/ml) were measured.

Another series has as its system P. aeruginosa AKR17. The description is as above. Type of series: cell-based. The settings on record: for MIC: Pseudomonas aeruginosa, AKR17, 16 h, read-out: Minimum Inhibitory Concentration (MIC). On the procedure:
as §4

Another series deals with P. aeruginosa MB5000. Described as above. The settings on record: for MIC: Pseudomonas aeruginosa, MB5000, 16 h, read-out: Minimum Inhibitory Concentration (MIC). Type of series: cell-based. On the procedure: as §4
For another series, the system named is DHP-I. As to the kind of experiment: DHP-I susceptibility (method by Kropp et al.). Type of series: in vitro ADME. From the text: The DHP-I susceptibility was quantitatively analyzed by the method by Kropp et al., Antimicrob. Agents Chemother., vol. 22, p. 62-70 (1982), whereby the smaller the numerical value representing the ratio to imipenem (=1.0), the higher the stability. The antibacterial potency and the DHP-I susceptibility of the compounds of the present invention were compared with imipenem and meropenem.

The conditions of series [1]: background, cited from earlier work.
For series [2] the following is noted: due to the decomposition products; cited from earlier work.
In series [3] the test system is DHP-I in the human kidney. The settings on record: background; cited from earlier work.
Another series deals with β-lactamase. The settings on record: background; cited from earlier work.
The test system of series [4] is highly methicillin resistant Staphylococcus aureus which is resistant to imipenem and imipenem resistant Pseudomonas aeruqinosa. The settings on record: background; cited from earlier work.
Series [5] relates to gram positive bacteria and gram negative bacteria. The settings on record: background; cited from earlier work.
Series [6] deals with highly methicillin resistant Staphylococcus aureus. The settings on record: background; cited from earlier work.
The test system of series [7] is renal dehydropeptidase I (DHP-I). The settings on record: background; cited from earlier work.
For series [8] the following is noted: background; cited from earlier work.
The mark [9] stands for this setting: P. aeruginosa MB5002, Mueller Hinton agar, 10^6 CFU/ml, 37° C., 16 hours.
The mark [10] stands for this setting: P. aeruginosa AKR17 (lactamase producing microorganism), Mueller Hinton agar, 10^6 CFU/ml, 37° C., 16 hours.
[11] abbreviates: P. aeruginosa MB5000, Mueller Hinton agar, 10^6 CFU/ml, 37° C., 16 hours.
Setting [12] is: ratio to imipenem (=1.0), smaller = higher stability.

As to `C[C@@H](O)[C@H]1C(=O)N2C(C(=O)O)=C(S[C@@H]3CN[C@H](C4CCNC4)C3)[C@H](C)[C@H]12` (single isomer, unassigned) [Example 11 Diastereomer A], the “Relative antibacterial potency to thienamycin” value (from here on “Relative antibacterial potency”) was found to be 12.7 in the series on THM-R P. aeruginosa and 15.2 in the series with Meth-R S. aureus. Further, the MIC with P. aeruginosa MB5002 (setting [9]) came out at 0.78 µg/mL (≈ 2.04 µM); in the series on P. aeruginosa AKR17 (setting [10]), 0.78 µg/mL (≈ 2.04 µM); in the series with P. aeruginosa MB5000 (setting [11]), 0.1 µg/mL (≈ 0.262 µM). Also, the DHP-I susceptibility in the series with DHP-I (setting [12]) is under 0.05.

Regarding `C[C@@H](O)[C@H]1C(=O)N2C(C(=O)O)=C(S[C@@H]3CN[C@H](C4CCNC4)C3)[C@H](C)[C@H]12` (single isomer, unassigned) [Example 11 Diastereomer B], the “Relative antibacterial potency” value is 11.5 with THM-R P. aeruginosa and 12.3 in the series with Meth-R S. aureus. The entries for the “Minimum Inhibitory Concentration (MIC)” value in the series with P. aeruginosa MB5002 (setting [9]), in the series on P. aeruginosa AKR17 (setting [10]) and with P. aeruginosa MB5000 (setting [11]) were 1.56 µg/mL, 1.56 µg/mL and 0.2 µg/mL, respectively. The DHP-I susceptibility in the series on DHP-I (setting [12]) was under 0.05.

As to `C[C@@H](O)[C@H]1C(=O)N2C(C(=O)O)=C(S[C@@H]3CN[C@H](C4CCN(C)C4)C3)[C@H](C)[C@H]12` (single isomer, unassigned) [Example 12 Diastereomer A], the MIC with P. aeruginosa MB5002 (setting [9]) and with P. aeruginosa AKR17 (setting [10]) was 1.56 µg/mL (≈ 3.94 µM) throughout.

`C[C@@H](O)[C@H]1C(=O)N2C(C(=O)[O-])=C(S[C@@H]3CN[C@H](C4CC[N+](C)(C)C4)C3)[C@H](C)[C@H]12` (single isomer, unassigned) [Example 13 Diastereomer A]: the MIC in the series on P. aeruginosa MB5002 (setting [9]) stood at 0.78 µg/mL (≈ 1.9 µM); with P. aeruginosa AKR17 (setting [10]), 1.56 µg/mL (≈ 3.81 µM); with P. aeruginosa MB5000 (setting [11]), 0.2 µg/mL (≈ 0.488 µM).

For the compound `C[C@@H](O)[C@H]1C(=O)N2C(C(=O)[O-])=C(S[C@@H]3CN[C@H](C4CC[N+](C)(C)C4)C3)[C@H](C)[C@H]12` (single isomer, unassigned) [Example 13], in the series on THM-R P. aeruginosa, the “Relative antibacterial potency” value stood at 11.5. Also, the DHP-I susceptibility in the series with DHP-I (setting [12]) is under 0.05.

Consider `C[C@@H](O)[C@H]1C(=O)N2C(C(=O)O)=C(S[C@@H]3CN[C@H](CC4CN[C@H](C(N)=O)C4)C3)[C@H](C)[C@H]12` (stereo partly drawn) [Example 32, (1R, 5S,6S)-2-[(2R,4S)-2-[(2S)-2-carbamoylpyrrolidin-4-ylmethyl]pyrrolidin-4-ylthio]-6-[(R)-1-hydroxyethyl]-1-methyl-1-carbapen-2-em-3-carboxylic acid], for which the “Relative antibacterial potency” value in the series on THM-R P. aeruginosa was found to be 19.5. For the same compound, in the series on DHP-I (setting [12]), the DHP-I susceptibility is under 0.05.

As for `C[C@@H](O)[C@H]1C(=O)N2C(C(=O)O)=C(S[C@@H]3CN[C@H](CC4CN[C@H](C(=O)N(C)C)C4)C3)[C@H](C)[C@H]12` (stereo partly drawn) [Example 34, (1R,5S,6S)-6-[(R)-1-hydroxyethyl]-1-methyl-2-[(2R,4S)-2-[(2S)-2-(dimethylcarbamoyl)pyrrolidin-4-ylmethyl]pyrrolidin-4-ylthio]-1-carbapen-2-em-3-carboxylic acid], the “Relative antibacterial potency” value in the series with THM-R P. aeruginosa is 21.6; with Meth-R S. aureus it was 22.7. Further, the DHP-I susceptibility in the series with DHP-I (setting [12]) is reported as 0.07.

With `C[C@@H](O)[C@H]1C(=O)N2C(C(=O)O)=C(S[C@@H]3CN[C@H](C4CCNCC4)C3)[C@H](C)[C@H]12` [Example 43, (1R,5S,6S)-6-[(R)-1-hydroxyethyl]-1-methyl-2-[(2S,4S)-2-(piperidin-4-yl)pyrrolidin-4-ylthio]-1-carbapen-2-em-3-carboxylic acid], the MIC in the series with P. aeruginosa MB5002 (setting [9]) was 0.39 µg/mL (≈ 0.986 µM); in the series on P. aeruginosa AKR17 (setting [10]), 1.56 µg/mL (≈ 3.94 µM); in the series with P. aeruginosa MB5000 (setting [11]), 0.1 µg/mL (≈ 0.253 µM).

For the compound `C[C@@H](O)[C@H]1C(=O)N2C(C(=O)O)=C(S[C@@H]3CN[C@H](C4CCN(C)CC4)C3)[C@H](C)[C@H]12` [Example 49], the “Relative antibacterial potency” value came out at 13.8 in the series with THM-R P. aeruginosa and 13.6 in the series with Meth-R S. aureus. Moreover, the MIC in the series with P. aeruginosa MB5002 (setting [9]) was determined as 0.78 µg/mL (≈ 1.9 µM); in the series on P. aeruginosa AKR17 (setting [10]), 1.56 µg/mL (≈ 3.81 µM); with P. aeruginosa MB5000 (setting [11]) it was 0.2 µg/mL (≈ 0.488 µM). Besides, the DHP-I susceptibility with DHP-I (setting [12]) was 0.10.

`C[C@@H](O)[C@H]1C(=O)N2C(C(=O)O)=C(SCCN=CN)C[C@H]12` [Imipenem, (5R,6S,8R)-3-[[2-(formimidoylamino)ethyl]thio]-6-(1-hydroxyethyl)-7-oxo-1-azabicyclo[3.2.0]hept-2-en-2-carboxylic acid monohydrate, reference compound]: the “Relative antibacterial potency” value was determined as 2.0 in the series on THM-R P. aeruginosa and 2.57 in the series with Meth-R S. aureus. Besides, the MIC stood at 3.13 µg/mL in the series on P. aeruginosa MB5002, 6.25 µg/mL with P. aeruginosa AKR17 and 1.56 µg/mL with P. aeruginosa MB5000. Also, the “stability in the solid form or in an aqueous solution” value in [1] (compared with thienamycin) is reported as “remarkably improved over thienamycin”. In addition, the “toxicity against the kidney” value in series [2] is “presents toxicity against the kidney due to the decomposition products”. The “decomposition by DHP-I in the human kidney” value in series [3] was “likely to be decomposed by DHP-I in the human kidney”. In addition, in the series with β-lactamase, the β-lactamase resistance entry is given as “has β-lactamase resistance”. For the same compound, the “treating effects against resistant bacteria” value in series [4] is “does not show adequate treating effects against these resistant bacteria”. Besides, the DHP-I susceptibility with DHP-I (setting [12]) is recorded as 1.0. For the same compound, the antibacterial activities entry in [5] is reported as “equal or higher level than thienamycin against various types of bacteria”.

With `C[C@@H](O)[C@H]1C(=O)N2C(C(=O)O)=C(S[C@@H]3CN[C@H](C(=O)N(C)C)C3)[C@H](C)[C@H]12` [Meropenem, (4R,5S,6S,8R,2'S,4'S)-6-(1-hydroxyethyl)-4-methyl-3-[2-(N,N-dimethylaminocarbonyl)-pyrrolidin-4-ylthio]-7-oxo-1-azabicyclo[3.2.0]hept-2-en-2-carboxylic acid, reference compound], the figures for the “Relative antibacterial potency” value in the series on THM-R P. aeruginosa and with Meth-R S. aureus were 6.9 and 3.22, respectively. Moreover, the MIC in the series with P. aeruginosa MB5002 (setting [9]) was 6.25 µg/mL (≈ 16.3 µM); in the series with P. aeruginosa AKR17 (setting [10]) it was 3.13 µg/mL (≈ 8.16 µM); with P. aeruginosa MB5000 (setting [11]), 0.39 µg/mL (≈ 1.02 µM). The “antibacterial activities against highly methicillin resistant Staphylococcus aureus” value in [6] is recorded as “not adequate”. Moreover, in series [7], the “decomposition by / stability against DHP-I” value is given as “substantially improved”. Besides, the DHP-I susceptibility with DHP-I turned out to be 0.12.

`C[C@@H](O)[C@H]1C(=O)N2C(C(=O)O)=C(SCCN)C[C@H]12` [Thienamycin, thienamycin]: in series [1], the chemical stability entry is reported as “chemically unstable”. Also, the “decomposition by DHP-I in the human kidney” value in series [3] is “likely to be decomposed by DHP-I in the human kidney”. In [7], the “decomposition by / stability against DHP-I” value is recorded as “likely to be decomposed by a certain enzyme in vivo such as renal dehydropeptidase I”. The “recovery rate in the urine” value in [8] is recorded as “low”. Also, in series [5], the antibacterial activities result was “strong antibacterial activities over a wide range against gram positive bacteria and gram negative bacteria”.

These data come from US5374720A, “2-(substituted pyrrolidinylthio)carbapenem derivatives” (Banyu Pharmaceutical Co., Ltd., priority 1990, dated 1994).
